From US7601686B2, “Hepatitis C virus inhibitors” (Bristol-Myers Squibb Company, priority 2005, dated 2009)
Read-outs that look alike come from different tables or passages of the source.

Experiments:
[1] = test system: HCV replicon in HUH-7 cells; test: HCV replicon FRET assay; format: cell-based, Hepatitis C virus (strain 1b); conditions: Hepatitis C virus; HCV replicon cell assay, HUH-7; read-out: EC50 Range
Excerpt: Generation of HCV Replicon
An HCV replicon whole cell system was established as described by Lohmann V, Korner F, Koch J, Herian U, Theilmann L, Bartenschlager R., Science 285(5424):110-3 (1999). This system enabled us to evaluate the effects of our HCV Protease compounds on HCV RNA replication. Briefly, using the HCV strain 1b sequence described in the Lohmann paper (Assession number:AJ238799), an HCV cDNA was synthesized by Operon Technologies, Inc. (Alameda, Calif.), and the full-length replicon was then assembled in plasmid pGem9zf(+) (Promega, Madison, Wis.) using standard molecular biology techniques. The replicon consists of (i) the HCV 5′ UTR fused to the first 12 amino acids of the capsid protein, (ii) the neomycin phosphotransferase gene (neo), (iii) the IRES from encephalomyocarditis virus (EMCV), and (iv) HCV NS3 to NS5B genes and the HCV 3′ UTR. Plasmid DNAs were linearized with ScaI and RNA transcripts were synthesized in vitro using the T7 MegaScript transcription kit (Ambion, Austin, Tex.) according to manufacturer's directions. In vitro transcripts of the cDNA were transfected into the human hepatoma cell line, HUH-7. […] Resulting cell lines were characterized for positive and negative strand RNA production and protein production over time.
The HCV replicon FRET assay was developed to monitor the inhibitory effects of compounds described in the disclosure on HCV viral replication. HUH-7 cells, constitutively expressing the HCV replicon, were grown in Dulbecco's Modified Eagle Media (DMEM) (Gibco-BRL) containing 10% Fetal calf serum (FCS) (Sigma) and 1 mg/mL G418 (Gibco-BRL). Cells were seeded the night before (1.5×10^4 cells/well) in 96-well tissue-culture sterile plates. Compound and no compound controls were prepared in DMEM containing 4% FCS, 1:100 Penicillin/Streptomysin (Gibco-BRL), 1:100 L-glutamine and 5% DMSO in the dilution plate (0.5% DMSO final concentration in the assay). Compound/DMSO mixes were added to the cells and incubated for 4 days at 37° C. After 4 days, cells were first assessed for cytotoxicity using alamar Blue (Trek Diagnotstic Systems) for a CC50 reading. The toxicity of compound (CC50) was determined by adding 1/10th volume of alamar Blue to the media incubating the cells. After 4 h, the fluorescence signal from each well was read, with an excitation wavelength at 530 nm and an emission wavelength of 580 nm, using the Cytofluor Series 4000 (Perspective Biosystems). Plates were then rinsed thoroughly with Phosphate-Buffered Saline (PBS) (3 times 150 μl).

[2] = biological target: T1, HCV NS3/4A protease complex, BMS strain (UniProt P27958, species not given/STRAIN_BMS); test: FRET peptide assay to monitor HCV NS3/4A proteolytic activity (BMS strain); format: biochemical, Hepatitis C virus (genotype 1a)
T1 construct: DNA encoding the recombinant HCV NS3/4A protease complex (amino acids 1027 to 1711) for these strains [H77 and J4L6S]; fused on or other part: For the H77 and J4L6S constructs, a three-lysine solubilising tail at the NS4A C-terminus and a Ni-NTA-purifiable tag from pET21b
T1 sequence (P27958 1027-1657, stated change not applied, one chain of several): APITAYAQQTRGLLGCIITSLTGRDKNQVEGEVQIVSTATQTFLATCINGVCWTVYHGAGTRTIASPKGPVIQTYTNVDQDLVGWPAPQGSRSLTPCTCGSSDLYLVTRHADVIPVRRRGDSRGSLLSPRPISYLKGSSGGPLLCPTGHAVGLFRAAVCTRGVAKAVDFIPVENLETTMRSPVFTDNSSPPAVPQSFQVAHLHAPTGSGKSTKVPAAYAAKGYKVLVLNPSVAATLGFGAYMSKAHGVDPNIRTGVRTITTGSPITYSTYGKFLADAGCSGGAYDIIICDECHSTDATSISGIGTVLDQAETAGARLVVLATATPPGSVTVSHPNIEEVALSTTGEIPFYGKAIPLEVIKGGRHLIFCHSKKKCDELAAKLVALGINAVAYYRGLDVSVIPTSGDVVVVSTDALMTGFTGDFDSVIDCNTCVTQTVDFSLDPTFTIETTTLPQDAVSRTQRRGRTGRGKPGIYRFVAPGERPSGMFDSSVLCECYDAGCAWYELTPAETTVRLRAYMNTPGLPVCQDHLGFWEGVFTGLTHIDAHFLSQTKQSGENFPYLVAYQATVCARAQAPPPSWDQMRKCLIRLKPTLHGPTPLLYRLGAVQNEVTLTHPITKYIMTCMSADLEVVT
Excerpt: Generation of Recombinant HCV NS3/4A Protease Complex
HCV NS3 protease complexes, derived from the BMS strain, H77 strain or J4L6S strain, were generated, as described below. These purified recombinant proteins were generated for use in a homogeneous assay (see below) to provide an indication of how effective compounds of the present disclosure would be in inhibiting HCV NS3 proteolytic activity.
Serum from an HCV-infected patient was obtained from Dr. T. Wright, San Francisco Hospital. An engineered full-length cDNA (compliment deoxyribonucleic acid) template of the HCV genome (BMS strain) was constructed from DNA fragments obtained by reverse transcription-PCR (RT-PCR) of serum RNA (ribonucleic acid) and using primers selected on the basis of homology between other genotype 1a strains. From the determination of the entire genome sequence, a genotype 1a was assigned to the HCV isolate according to the classification of Simmonds et al. (See P Simmonds, K A Rose, S Graham, S W Chan, F McOmish, B C Dow, E A Follett, P L Yap and H Marsden, J. Clin. Microbiol., 31(6), 1493-1503 (1993)). […] The infectious clones, H77 (1a genotype) and J4L6S (1b genotype) were obtained from R. Purcell (NIH) and the sequences are published in Genbank (AAB67036, see Yanagi, M., Purcell, R. H., Emerson, S. U. and Bukh, J. Proc. Natl. Acad. Sci. U.S.A. 94(16), 8738-8743 (1997); AF054247, see Yanagi, M., St Claire, M., Shapiro, M., Emerson, S. U., Purcell, R. H. and Bukh, J, Virology 244 (1), 161-172. (1998)).
The H77 and J4L6S strains were used for production of recombinant NS3/4A protease complexes. DNA encoding the recombinant HCV NS3/4A protease complex (amino acids 1027 to 1711) for these strains were manipulated as described by P. Gallinari et al. (see Gallinari P, Paolini C, Brennan D, Nardi C, Steinkuhler C, De Francesco R. Biochemistry. 38(17):5620-32, (1999)). Briefly, a three-lysine solubilizing tail was added at the 3′-end of the NS4A coding region. The cysteine in the P1 position of the NS4A-NS4B cleavage site (amino acid 1711) was changed to a glycine to avoid the proteolytic cleavage of the lysine tag. Furthermore, a cysteine to serine mutation was introduced by PCR at amino acid position 1454 to prevent the autolytic cleavage in the NS3 helicase domain. The variant DNA fragment was cloned in the pET21b bacterial expression vector (Novagen) and the NS3/4A complex was expressed in Escherichia coli strain BL21 (DE3) (Invitrogen) following the protocol described by P. Gallinari et al. (see Gallinari P, Brennan D, Nardi C, Brunetti M, Tomei L, Steinkuhler C, De Francesco R., J. Virol. 72(8):6758-69 (1998)) with modifications. Briefly, the NS3/4A protease complex expression was induced with 0.5 millimolar (mM) Isopropyl β-D-1-thiogalactopyranoside (IPTG) for 22 hours (h) at 20° C. A typical fermentation (1 Liter (L)) yielded approximately 10 grams (g) of wet cell paste. The cells were resuspended in lysis buffer (10 mL/g) consisting of 25 mM N-(2-Hydroxyethyl)piperazine-N′-(2-Ethane Sulfonic acid) (HEPES), pH 7.5, 20% glycerol, 500 mM Sodium Chloride (NaCl), 0.5% Triton X-100, 1 microgram/milliliter (“μg/mL”) lysozyme, 5 mM Magnesium Chloride (MgCl2), 1 μg/mL DnaseI, 5 mM β-Mercaptoethanol (βME), Protease inhibitor—Ethylenediamine Tetraacetic acid (EDTA) free (Roche), homogenized and incubated for 20 minutes (min) at 4° C. The homogenate was sonicated and clarified by ultra-centrifugation at 235000 g for 1 h at 4° C. Imidazole was added to the supernatant to a final concentration of 15 mM and the pH adjusted to 8.0. The crude protein extract was loaded on a Nickel—Nitrilotriacetic acid (Ni-NTA) column pre-equilibrated with buffer B (25 mM HEPES, pH 8.0, 20% glycerol, 500 mM NaCl, 0.5% Triton X-100, 15 mM imidazole, 5 mM βME). The sample was loaded at a flow rate of 1 mL/min. The column was washed with 15 column volumes of buffer C (same as buffer B except with 0.2% Triton X-100). […]

[3] = read-out: IC 50 Range; NS3/4A BMS strain, enzyme assay
[4] = NS3/4A BMS strain, enzyme assay; read-out: IC 50 Range

Row | SMILES | EC50 [1] | IC50 [2, 3] | IC50 [2, 4]
1 | C=CC1CC1(NC(=O)[C@@H]1C[C@@H](NC(=O)OCC2c3ccccc3-c3ccccc32)CN1C(=O)[C@@H](NC(=O)OC(C)(C)C)C(C)(C)C)C(=O)NS(=O)(=O)C1CC1 (mixture of isomers) [Compound 5, [1-(2-tert-butoxycarbonylamino-3,3-dimethyl-butyryl)-5-(1-cyclopropanesulfonylaminocarbonyl-2-vinyl-cyclopropylcarbamoyl)-pyrrolidin-3-yl]-carbamic acid 9H-fluoren-9-ylmethyl ester] | 0.15 to 15 µM | 0.15 to 15 µM | –
2 | C=CC1CC1(NC(=O)[C@@H]1C[C@@H](NC(=O)c2ccc3cnccc3n2)CN1C(=O)[C@@H](NC(=O)CC1CC1)C(C)(C)C)C(=O)NS(=O)(=O)C1CC1 (stereo partly shown) [Compound 41] | > 15 µM | – | < 0.15 µM
3 | C=CC1CC1(NC(=O)C1CC(NC(=O)c2cccc[n+]2[O-])CN1C(=O)C(NC(=O)CC1CC1)C(C)(C)C)C(=O)NS(=O)(=O)C1CC1 (stereo not shown) [Compound 33] | > 15 µM | 0.15 to 15 µM | –
4 | C=CC1CC1(NC(=O)[C@@H]1C[C@@H](NC(=O)c2c(C)nc3ccccn23)CN1C(=O)[C@@H](NC(=O)CC1CC1)C(C)(C)C)C(=O)NS(=O)(=O)C1CC1 (stereo partly shown) [Compound 17] | > 15 µM | – | < 0.15 µM
5 | C=CC1CC1(NC(=O)[C@@H]1CC(NC(=O)c2cc(-c3ccccc3)nc3ccccc23)CN1C(=O)[C@@H](NC(=O)OC(C)(C)C)C(C)(C)C)C(=O)NS(=O)(=O)C1CC1 (stereo partly shown) [Compound 6] | 0.15 to 15 µM | – | < 0.15 µM
6 | C=CC1CC1(NC(=O)[C@@H]1C[C@@H](NC(=O)c2ccccc2OC)CN1C(=O)[C@@H](NC(=O)CC1CC1)C(C)(C)C)C(=O)NS(=O)(=O)C1CC1 (stereo partly shown) [Compound 35] | > 15 µM | 0.15 to 15 µM | –
7 | C=CC1CC1(NC(=O)[C@@H]1C[C@@H](NC(=O)c2cnc3c(c(C)nn3C)c2Cl)CN1C(=O)[C@@H](NC(=O)CC1CC1)C(C)(C)C)C(=O)NS(=O)(=O)C1CC1 (stereo partly shown) [Compound 22] | > 15 µM | – | < 0.15 µM
8 | C=CC1CC1(NC(=O)[C@@H]1C[C@@H](NC(=O)c2ccc3ccccc3n2)CN1C(=O)[C@@H](NC(=O)CC1CC1)C(C)(C)C)C(=O)NS(=O)(=O)C1CC1 (stereo partly shown) [Compound 25] | 0.15 to 15 µM | – | < 0.15 µM
9 | C=CC1CC1(NC(=O)[C@@H]1C[C@@H](NC(=O)c2cn(C)c3ccccc23)CN1C(=O)[C@@H](NC(=O)CC1CC1)C(C)(C)C)C(=O)NS(=O)(=O)C1CC1 (stereo partly shown) [Compound 19] | > 15 µM | < 0.15 µM | –
10 | C=CC1CC1(NC(=O)[C@@H]1C[C@@H](NS(=O)(=O)c2cccc3ccccc23)CN1C(=O)[C@@H](NC(=O)OC(C)(C)C)C(C)(C)C)C(=O)NS(=O)(=O)C1CC1 (stereo partly shown) [Compound 48] | > 15 µM | – | 0.15 to 15 µM
11 | C=CC1CC1(NC(=O)[C@@H]1C[C@@H](NC(=O)c2sc3ccccc3c2Cl)CN1C(=O)[C@@H](NC(=O)CC1CC1)C(C)(C)C)C(=O)NS(=O)(=O)C1CC1 (stereo partly shown) [Compound 29] | 0.15 to 15 µM | – | < 0.15 µM
12 | C=CC1CC1(NC(=O)[C@@H]1C[C@@H](NC(=O)c2ccsc2)CN1C(=O)[C@@H](NC(=O)CC1CC1)C(C)(C)C)C(=O)NS(=O)(=O)C1CC1 (stereo partly shown) [Compound 12] | > 15 µM | – | 0.15 to 15 µM
13 | C=CC1CC1(NC(=O)[C@@H]1C[C@@H](NC(=O)n2c(=O)oc3ccccc32)CN1C(=O)[C@@H](NC(=O)CC1CC1)C(C)(C)C)C(=O)NS(=O)(=O)C1CC1 (stereo partly shown) [Compound 53] | > 15 µM | < 0.15 µM | –
14 | C=CC1CC1(NC(=O)[C@@H]1C[C@@H](NC(=O)n2ccc3cccnc32)CN1C(=O)[C@@H](NC(=O)CC1CC1)C(C)(C)C)C(=O)NS(=O)(=O)C1CC1 (stereo partly shown) [Compound 50] | 0.15 to 15 µM | – | < 0.15 µM
